Where a name gives a salt, the structure may show the parent alone. Read-outs that look alike come from different tables or passages of the source.
What was measured:
5HT1A receptor = molecular target: T1, 5HT1A receptor (Rattus norvegicus, UniProt P19327); test: "Tail-Flicks" test on rats (reduction of 8-OH-DPAT induced tail movements); assay type: in vivo; conditions: sc, tail movements induced by subcutaneous 8-OH-DPAT, read-out: ED50 (amount that reduces 8-OH-DPAT action by 50%)
T1 construct: Subcutaneous injection of rats with 8-OH-DPAT spontaneously induces tail movements; from tissue; host or cells: whole living rat (in vivo)
T1 sequence (P19327 1-422): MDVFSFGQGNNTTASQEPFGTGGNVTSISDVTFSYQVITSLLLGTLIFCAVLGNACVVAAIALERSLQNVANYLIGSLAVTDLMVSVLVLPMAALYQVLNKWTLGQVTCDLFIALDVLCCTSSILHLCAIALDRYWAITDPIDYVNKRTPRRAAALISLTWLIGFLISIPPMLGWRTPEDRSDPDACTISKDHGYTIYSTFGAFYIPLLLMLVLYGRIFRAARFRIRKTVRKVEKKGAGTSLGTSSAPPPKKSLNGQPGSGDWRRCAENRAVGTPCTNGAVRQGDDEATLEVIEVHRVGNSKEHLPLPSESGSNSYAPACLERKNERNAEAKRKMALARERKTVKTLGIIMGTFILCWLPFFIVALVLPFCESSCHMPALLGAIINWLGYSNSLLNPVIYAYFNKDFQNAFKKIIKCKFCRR
Source text: a) "Tail-Flicks" test on rats
Subcutaneous injection of rats with 8-OH-DPAT spontaneously induces tail movements ("Tail-Flicks"). These movements are reduced in a specific manner by 5HT1A receptor antagonists. The ED50 values, that is to say those amounts of the compounds of the invention that reduce 8-OH-DPAT action by 50%, are listed in Table II.

sigma receptor = test: Sigma binding test (in vitro), inhibition of [3H] ditolylguanidine binding; set-up: species or system guinea pig
Method: b) Sigma binding test (in vitro)
The affinity of the compounds of the invention to the sigma receptor in brain tissue is evaluated by the degree of inhibition of the binding of a sigma site radioligand in in vitro competition experiments.
The experiment protocol used is that described by WEBER et at. Proc. Nat. Acad. Sci. USA, (1986), 83, 8784-8788.
The ligand is 1,2-di-(2-[5-^3 H]tolyl)guanidine (Dupont de Nemours--55 Ci/mmol) at a final concentration of 2 nM.
The membrane preparation is a suspension of central nervous system microsomes of a guinea pig used at a final concentration of 0.5 mg of prot/ml.
The non-specific fixation is determined in the presence of 10 μM of haloperidol.
The results, given in Table III, to illustrate the invention are expressed at IC50 =K.0.5 (M)

[1] = guinea pig central nervous system microsomes, 0.5 mg of prot/ml, ligand 2 nM, non-specific: 10 μM haloperidol

Row | SMILES | ED50 (5HT1A receptor) [mg/kg] | IC50 (sigma receptor; [1]) [nM] | IC50 (sigma receptor) [nM]
1 | CCN(C(C)=O)C1CCN(CC2Cc3ccccc32)CC1 (stereo not drawn) [Example 21, N-[1-(benzocyclobuten-1-ylmethyl)-piperid-4-yl]-N-ethylacetamide hydrochloride] | 0.63 |  | 
2 | CCN(C(=O)OC)C1CCN(CC2Cc3ccccc32)CC1 (stereo not drawn) [Example 14, Methyl N-[1-(benzocyclobuten-1-ylmethyl)-piperid-4-yl]-N-ethylcarbamate hydrochloride] | 0.02 |  | 
3 | CC(C)COC(=O)N(C)C1CCN(C2Cc3ccccc3C2)CC1 [Example 43, Isobutyl N-[1-(indan-2-yl)-piperid-4-yl]-N-methylcarbamate fumarate] |  | 4 | 
4 | CCOC(=O)N(C)C1CCN(CC2Cc3ccccc32)CC1 (stereo not drawn) [Example 23, Ethyl N-[1-(benzocyclobuten-1-ylmethyl)-piperid-4-yl]-N-methylcarbamate hydrochloride] | 2.5 |  | 
5 | CCCOC(=O)N(C)C1CCN(C2Cc3ccccc3C2)CC1 [Example 44, Propyl N-[1-(indan-2-yl)-piperid-4-yl]-N-methylcarbamate] | 2.5 | 40 | 
6 | CCOC(=O)N(C)C1CCN(CC2Cc3c2ccc2c3OCO2)CC1 (stereo not drawn) [Example 28, Ethyl N-{1-[(3,4-methylenedioxybenzocyclobuten-1-yl)methyl[-piperid-4-yl}-N-methylcarbamate fumarate] | 2.5 |  | 
7 | CCCOC(=O)N(C)C1CCN(CC2Cc3ccccc32)CC1 (stereo not drawn) [Example 9, Propyl N-[1-(benzocyclobuten-1-ylmethyl)-piperid-4-yl]-N-methylcarbamate hydrochloride] | 0.31 | 30 | 
8 | COC(=O)N(C)C1CCN(CC2Cc3ccccc32)CC1 (stereo not drawn) [Example 8, Methyl [1-benzocyclobuten-1-ylmethyl)-piperid-4-yl]-N-methylcarbamate hydrochloride] | 1.25 |  | 
9 | CN(C(=O)Oc1ccccc1)C1CCN(CC2Cc3ccccc32)CC1 (stereo not drawn) [Example 12, Phenyl N-[1-(benzocyclobuten-1-ylmethyl)-piperid-4-yl]-N-methylcarbamate hydrochloride] |  |  | 30
10 | CC(C)COC(=O)N(C)C1CCN(CC2Cc3ccccc32)CC1 (stereo not drawn) [Example 15, Isobutyl N-[1-(benzocyclobuten-1-ylmethyl)-piperid-4-yl]-N-methylcarbamate fumarate] | 1.25 | 100 | 
11 | CCOC(=O)N(CC)C1CCN(CC2Cc3ccccc32)CC1 (stereo not drawn) [Example 13, Ethyl N-[1-(benzocyclobuten-1-ylmethyl)-piperid-4-yl]-N-ethylcarbamate hydrochloride] | 1.25 |  | 
12 | CN(C(=O)OCc1ccccc1)C1CCN(CC2Cc3ccccc32)CC1 (stereo not drawn) [Example 19, Benzyl N-[1-(benzocyclobuten-1-ylmethyl)-piperid-4-yl]-N-methylcarbamate hydrochloride] |  | 30 | 
13 | CN(C(=O)OC(C)(C)C)C1CCN(CC2Cc3ccccc32)CC1 (stereo not drawn) [Example 11, Tert-butyl N-[1-(benzocyclobuten-1-ylmethyl)-piperid-4-yl]-N-methylcarbamate hydrochl oride] | 2.5 |  | 
14 | C=COC(=O)N(C)C1CCN(CC2Cc3ccccc32)CC1 (racemic) [Example 42, (R,S)-vinyl N-[1-(benzocyclobuten-1ylmethyl)-piperid-4-yl]-N-methylcarbamate hydrochlo ride] | 1.25 | 50 | 
